Assay results taken from US12029730B2, “Pharmaceutical composition for preventing or treating cancer, containing N-1H-benzimidazol-2-yl-3-(1H-pyrrole-1-yl)benzamide as active ingredient” (KOREA INSTITUTE OF RADIOLOGICAL & MEDICAL SCIENCES, priority 2018, dated 2024).

Legend:
MCF7 cells [1] = assay: Colonogenic assay and western blotting with 2.5 Gy radiation, MCF7; type: cell-based, human; conditions: for sensitivity to radiation therapy (colony number): MCF7, 2.5 Gy, compared to DMSO, FIG. 10A/10B
Experimental: A colonogenic assay was performed in order to confirm whether the sensitivity to the radiation treatment effect can be increased when MCF7 cancer cell line was treated with MKI-1. First, breast cancer cells MCF7 (500-1000 cells) were placed in a 60-mm tissue culture medium on a 60 mm culture plate, and treated with MASTL kinase inhibitors (AT13148, MKI-1 and GKI-1), respectively, and then was treated with 2.5 Gy radiation by Biobeam GM8000 (Gamma-Gamma-Service Medical GmbH, Leipzig, Germany) and the control group was not treated with radiation. After 10 to 14 days, the cell colonies were fixed with methanol and stained with 0.5% crystal violet, and the results were shown in FIG. 10A, and the number of colonies shown in the above results was quantified using Image J software to show in 10B, and then western blotting was performed and the results thereof were shown in FIG. 10C.

BT549 cells = assay: WST-8 cell viability assay, breast cancer cell line BT549; type: cell-based, human; conditions: FIG. 6; for cell viability, BT549: 3.70, 11.11, 33.33 and 100 μM
Experimental: In addition, the cell line in this experiment was distributed from ATCC (American Type Culture Collection; Manassas, VA). Human-derived tumor cell lines, breast cancer cell lines MCF7 and T47D was cultured in DMEM medium containing 10% fetal bovine serum (FBS; HyClone, South Logan, UT) and 1% penicillin/streptomycin (Corning, NY, USA) at 37° C. and 5% CO2, and the BT549 breast cancer cell line was cultured in RPMI 1640 (Welgene, Daegu, Korea) as a medium used under the same conditions. Human-derived normal cell line MCF10A was cultured in DMEM/F12 (Invitrogen) medium containing 5% horse serum (Invitrogen), 1% penicillin/streptomycin, 20 ng/ml EGF (Peprotech, London, UK), […] (Sigma-Aldrich, MO, USA), 100 ng/ml cholera toxin (Cholera Toxin, Sigma-Aldrich) and 10 μg Insulin (Sigma-Aldrich) at 37° C. and 5% CO2.
In order to confirm whether the selected MKI-1 can kill only cancer cells, an experiment was performed by treating with MKI-1 and measuring whether the cell viability of breast cancer cell lines and normal cell lines was changed. WST-8 analysis (Cyto X™ cell viability assay kit, LPS solution, Daejeon, Korea) was performed according to the manufacturer's protocol. Cancer cells MCF7 and BT549 and normal cell line MCF10A cells were inoculated into a 96-well plate, cultured for 24 hours, and then treated with MASTL kinase inhibitors at various concentrations (3.70, 11.11, 33.33 and 100 μM). Thereafter, the absorbance was measured at 450 nm using a Versamax micro plate reader (Molecular Devices, CA, USA), and the results were shown in FIG. 6.

MASTL kinase = molecular target: T1, MASTL kinase (Homo sapiens, UniProt Q96GX5); assay: ADP-Glo luminescence-kinase assay; type: biochemical; conditions: 10 μM ATP, FIG. 2
T1 construct: GST; purchased Thermo Fisher Scientific
T1 sequence (Q96GX5 1-879): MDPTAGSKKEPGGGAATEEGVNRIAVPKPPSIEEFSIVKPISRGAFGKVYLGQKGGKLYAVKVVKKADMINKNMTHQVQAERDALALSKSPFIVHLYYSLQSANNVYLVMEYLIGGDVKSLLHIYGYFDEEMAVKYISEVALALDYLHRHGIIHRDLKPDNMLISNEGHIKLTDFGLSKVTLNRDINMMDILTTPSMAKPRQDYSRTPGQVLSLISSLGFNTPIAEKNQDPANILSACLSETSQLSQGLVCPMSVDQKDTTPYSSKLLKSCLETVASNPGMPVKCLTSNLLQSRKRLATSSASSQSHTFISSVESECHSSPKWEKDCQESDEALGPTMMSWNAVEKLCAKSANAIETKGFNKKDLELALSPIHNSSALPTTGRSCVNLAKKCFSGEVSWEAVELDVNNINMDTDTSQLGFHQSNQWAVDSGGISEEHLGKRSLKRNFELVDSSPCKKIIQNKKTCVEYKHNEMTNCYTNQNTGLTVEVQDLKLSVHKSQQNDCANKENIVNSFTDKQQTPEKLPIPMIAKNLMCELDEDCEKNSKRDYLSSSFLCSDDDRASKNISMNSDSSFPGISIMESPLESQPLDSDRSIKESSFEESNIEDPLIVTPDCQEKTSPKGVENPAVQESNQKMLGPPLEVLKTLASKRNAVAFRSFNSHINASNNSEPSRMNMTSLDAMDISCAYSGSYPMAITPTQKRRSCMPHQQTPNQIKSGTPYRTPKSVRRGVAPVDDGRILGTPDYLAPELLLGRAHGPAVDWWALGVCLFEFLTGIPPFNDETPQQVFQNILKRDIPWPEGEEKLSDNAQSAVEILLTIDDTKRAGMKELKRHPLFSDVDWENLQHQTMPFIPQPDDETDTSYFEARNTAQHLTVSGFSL
Experimental: A protein kinase analysis was performed using the ADP-Glo™ kinase assay kit according to the standard protocol provided by Promega. […] A solution of a serial 2-fold dilution of the MASTL kinase inhibitor (GKI-1, MKI-1 or AT13148) was prepared and MASTL kinase […], ENSA 250 ng and 10 μM ATP was mixed in a kinase reaction buffer consisting of 100 mM Tris-HCl (pH 7.5), 30 mM MgCl2, 2 mM DTT, 1 mM EDTA and 10 μM ultra-pure ATP (Promega). Thereafter, the mixture was reacted at 30° C. for 30 minutes in an E-tube, and a kinase detection reagent was added thereto, followed by reacting for 30 minutes to detect the converted ATP. Then, the reacted product was transferred to a 384-well white plate, and […] was read using a SpectraMax i3× Multi-Mode Microplate Reader (Molecular Devices), and GKI-1, N-(4-chlorophenyl)-3-(1H-pyrazol-4-yl)aniline and AT13148 were used as positive controls. The effect of inhibiting kinase activity of GKI-1 and MKI-1 and its IC50 confirmed through the reading result were shown in FIG. 2. In addition, enzyme activity assay was performed under the same conditions except for the treatment of each concentration of MKI-1 (0, 6.25, 12.5, 25, 50 and 100 μM) through western blot, and it was shown in FIG. 3.

MCF7 cells [2] = assay: 3D culture spheroid formation; type: cell-based, human; conditions: MCF7 3D culture, AT13148 2 μM, GKI-1 10 μM, MKI-1 10 μM, FIG. 9
Experimental: 3D culture was performed according to the protocol of the manufacturing company TheWell Bioscience. It was inoculated into 24-wells containing a DMEM mixture containing 10,000 MCF7 cells in an MCF7 cell:hydrogel solution in a ratio of 1:3 (v/v) and VitroGel™ 3D-RGD diluted with 0.1% PBS in a ratio of 1:3 (v/v) of a hydrogel:diH2O. Thereafter, incubation was performed at 37° C. for 15 minutes to stabilize the VitroGel 3D-RGD hydrogel. To cover the hydrogel, the same volume of DMEM as the hydrogel was added, and the next day, the hydrogel was treated with a DMSO base drug containing DMSO, AT13148 (2 μM), GKI-1 (10 μM) and MKI-1 (10 μM). The medium was exchanged every 2 days for 14 to 20 days.

[3] = MCF7, after radiation treatment, FIG. 10C

Structure (SMILES)	sensitivity to radiation therapy (colony number) (MCF7 cells [1])	expression levels of cleaved-PARP and phosphorylated Chk2 (MCF7 cells [1]; [3])	expression levels of procaspase-2 (MCF7 cells [1]; [3])	survival rate of cancer cells, BT549 (BT549 cells; 33.33 μM or more)	cell viability, BT549 (BT549 cells)	IC50 (MASTL kinase) [µM]	size of cancer cell spheroid (MCF7 cells [2])
O=C(Nc1nc2ccccc2[nH]1)c1cccc(-n2cccc2)c1 [MKI-1, N-1H-benzimidazol-2-yl-3-(1H-pyrrol-1-yl) benzamide]	significantly higher	increased	decreased	significantly reduced	decreases cell viability in a dose-dependent manner	11.6	significantly reduced
Clc1ccc(Nc2cccc(-c3cn[nH]c3)c2)cc1 [GKI-1, N-(4-chlorophenyl)-3-(1H-pyrazol-4-yl)aniline, reference compound]	no synergistic effect				decreases cell viability in a dose-dependent manner	12	hardly decreased
